Results: ChEMBL document CHEMBL1153432 (J Med Chem, 2009)
Where a SMILES comes first, the peptide text is derived from it. [ ]: non-standard residue; d: D form. The star is where a group is joined. Heptanoyl = CCCCCCC(=O)*; Dap = NC[C@H](N)C(=O)O; X1 = O=C(CCCCCF)*

Experiments:
[1] = target: T1, Growth hormone secretagogue receptor type 1 (Homo sapiens, UniProt Q92847); test: Displacement of [35S]MK-0677 from human growth hormone secretagogue receptor
[2] = target: T1, Growth hormone secretagogue receptor type 1; test: Displacement of [125I]ghrelin from human growth hormone secretagogue receptor expressed in CHO-K1 cells at >2 uM; format: cell-based
[3] = target: T1, Growth hormone secretagogue receptor type 1; test: Displacement of [125I]ghrelin from human growth hormone secretagogue receptor expressed in CHO-K1 cells; format: cell-based

T1 sequence (Q92847 whole entry): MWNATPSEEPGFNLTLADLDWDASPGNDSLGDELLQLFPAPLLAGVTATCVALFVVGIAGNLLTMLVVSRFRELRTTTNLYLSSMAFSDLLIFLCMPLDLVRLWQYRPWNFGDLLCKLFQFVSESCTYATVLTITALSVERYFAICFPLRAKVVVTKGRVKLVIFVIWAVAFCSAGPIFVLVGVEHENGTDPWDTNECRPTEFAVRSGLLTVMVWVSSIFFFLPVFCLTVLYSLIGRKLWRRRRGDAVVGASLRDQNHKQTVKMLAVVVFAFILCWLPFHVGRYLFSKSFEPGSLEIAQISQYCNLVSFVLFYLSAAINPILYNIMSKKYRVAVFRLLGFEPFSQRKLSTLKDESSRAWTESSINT

Row | IC50 [1] [µM] | Activity [2] [%] | IC50 [3] [µM] | Structure (SMILES)
1 | 9.6 | – | – | CCCCCCC(=O)OC[C@H](NC(=O)[C@H](CO)NC(=O)CN)C(=O)N[C@@H](Cc1ccccc1)C(=O)N[C@@H](CC(C)C)C(=O)N[C@@H](CO)C(=O)N1CCC[C@H]1C(=O)N[C@@H](CCC(=O)O)C(=O)N[C@@H](Cc1cnc[nH]1)C(=O)N[C@@H](CCC(N)=O)C(=O)N[C@@H](CCCN=C(N)N)C(=O)N[C@H](C(=O)N[C@@H](CCC(N)=O)C(=O)N[C@@H](CCC(N)=O)C(=O)O)C(C)C
2 | 55 | – | – | CCCCCCC(=O)OC[C@H](NC(=O)[C@H](CO)NC(=O)CN)C(=O)N[C@@H](Cc1ccccc1)C(=O)N[C@@H](CC(C)C)C(N)=O (H-GSS(Heptanoyl)FL-NH2)
3 | 889 | – | – | CCCCCCC(=O)OC[C@H](NC(=O)[C@H](CO)NC(=O)CN)C(=O)N[C@@H](Cc1ccccc1)C(N)=O (H-GSS(Heptanoyl)F-NH2)
4 | – | 20 | > 2 | CC(C)C[C@H](NC(=O)[C@H](Cc1ccccc1)NC(=O)[C@H](CNC(=O)CCCCCF)NC(=O)[C@H](CO)NC(=O)CN)C(N)=O (H-GS[Dap](X1)FL-NH2)
